We go through 24 molecules from ChEMBL document CHEMBL1155009, “7-Aminopyrazolo[1,5-a]pyrimidines as potent multitargeted receptor tyrosine kinase inhibitors” (J Med Chem, 2008).

Molecules are shown by their SMILES. Where only a bound is given, the exact number is not on record here.

The test system of data set [1] is Mus musculus. The data set can be described thus: Inhibition of estradiol-induced uterine edema in BALB/c mouse at 10 mg/kg, po administered 30 mins prior to 17-beta-estradiol challenge after 2 hrs. Particulars: read-out: INH.
For data set [2], the target named is T1, Vascular endothelial growth factor receptor 2 (Homo sapiens, UniProt P35968).
T1 sequence (P35968 whole entry): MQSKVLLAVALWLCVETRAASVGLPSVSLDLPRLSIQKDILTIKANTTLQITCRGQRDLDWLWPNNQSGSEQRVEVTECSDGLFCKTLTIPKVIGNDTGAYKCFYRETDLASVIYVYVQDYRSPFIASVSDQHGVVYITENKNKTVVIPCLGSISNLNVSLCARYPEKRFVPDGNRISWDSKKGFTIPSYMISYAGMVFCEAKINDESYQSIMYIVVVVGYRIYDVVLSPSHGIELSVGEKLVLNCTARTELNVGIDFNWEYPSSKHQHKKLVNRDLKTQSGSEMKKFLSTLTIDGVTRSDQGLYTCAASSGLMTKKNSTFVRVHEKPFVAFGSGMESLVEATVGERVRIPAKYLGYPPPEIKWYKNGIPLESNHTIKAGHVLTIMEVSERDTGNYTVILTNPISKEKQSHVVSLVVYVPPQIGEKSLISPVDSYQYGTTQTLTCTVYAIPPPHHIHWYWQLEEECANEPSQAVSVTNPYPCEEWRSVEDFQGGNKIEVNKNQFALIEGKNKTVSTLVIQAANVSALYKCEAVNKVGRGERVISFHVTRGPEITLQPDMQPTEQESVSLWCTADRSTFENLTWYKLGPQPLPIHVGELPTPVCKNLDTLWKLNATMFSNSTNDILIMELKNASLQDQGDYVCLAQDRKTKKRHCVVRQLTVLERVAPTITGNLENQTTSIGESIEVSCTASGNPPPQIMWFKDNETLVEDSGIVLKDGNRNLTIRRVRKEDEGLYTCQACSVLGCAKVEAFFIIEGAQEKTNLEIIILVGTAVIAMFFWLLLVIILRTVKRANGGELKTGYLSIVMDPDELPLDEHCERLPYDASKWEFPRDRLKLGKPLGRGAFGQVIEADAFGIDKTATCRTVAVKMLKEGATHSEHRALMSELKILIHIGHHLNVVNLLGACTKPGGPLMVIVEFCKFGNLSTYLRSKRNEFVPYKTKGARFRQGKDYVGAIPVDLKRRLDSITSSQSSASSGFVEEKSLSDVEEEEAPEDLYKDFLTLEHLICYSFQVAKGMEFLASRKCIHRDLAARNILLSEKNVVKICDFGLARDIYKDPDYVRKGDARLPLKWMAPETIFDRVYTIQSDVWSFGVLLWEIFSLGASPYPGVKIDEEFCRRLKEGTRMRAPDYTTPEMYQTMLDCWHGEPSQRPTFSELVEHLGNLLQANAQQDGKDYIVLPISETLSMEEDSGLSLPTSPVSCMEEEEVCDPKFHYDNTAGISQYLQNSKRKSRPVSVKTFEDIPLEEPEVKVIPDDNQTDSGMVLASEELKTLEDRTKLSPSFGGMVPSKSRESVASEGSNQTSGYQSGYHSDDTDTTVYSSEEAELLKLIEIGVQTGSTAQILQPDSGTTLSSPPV
Description: Inhibition of KDR by HTRF assay
In data set [3] the test system is Mus musculus. In words: Half life in CD1 mouse at 3 mg/kg, iv. Also noted: dose 3 mg/kg, route intravenous. Type of data set: ADME, organism-based. Particulars: in vivo.
Data set [4] is described as follows: AUC in CD1 mouse at 10 mg/kg, po. Type of data set: ADME, organism-based. The arrangement: dose 10 mg/kg, route oral. Particulars: plasma.
Data set [5] can be described thus: Oral bioavailability in CD1 mouse at 10 mg/kg. It counts as ADME, organism-based. Particulars: in vivo.
Data set [6] in a line: AUC in CD1 mouse at 3 mg/kg, iv. It counts as ADME, organism-based. The arrangement: dose 3 mg/kg, route intravenous. Particulars: plasma.
Data set [7] concerns Mus musculus. In words: Volume of distribution in CD1 mouse at 3 mg/kg, iv. Also noted: dose 3 mg/kg, route intravenous. Particulars: in vivo. It counts as ADME, organism-based.
The nature of data set [8]: Cmax in CD1 mouse at 10 mg/kg, po. It counts as ADME, organism-based. The arrangement: dose 10 mg/kg, route oral. Particulars: in vivo.
Data set [9] concerns the target T1, Vascular endothelial growth factor receptor 2. In words: Inhibition of human KDR phosphorylation expressed in mouse NIH3T3 cells by ELISA. Type of data set: cell-based. A general note: ELISA stands for enzyme-linked immunosorbent assay.

As usually defined, the IC50 is the concentration needed to halve the response being measured. Low readings indicate higher potency, high ones lower potency. In general, AUC refers to the area under the concentration-time curve, a measure of exposure. Lower therefore signals less exposure. A word on the bioavailability: it is dose-corrected exposure relative to a reference, in per cent. Read a low bioavailability as poor availability. As a reminder, the Vd is the apparent volume that relates the amount in the body to the concentration in plasma or blood. What is called Cmax is the maximum level reached in the sampled fluid or tissue.

`Cn1cc(-c2ccn3c(N)c(-c4ccc(NC(=O)Nc5cc(C(F)(F)F)ccc5F)cc4)cnc23)cn1`: the inhibition in vivo at 10 mg/kg with Mus musculus [1] worked out at 45%.

`Cc1ccc(F)c(NC(=O)Nc2ccc(-c3cnc4ccnn4c3N)cc2)c1` registered an IC50 in data set [2] of 74 nM.

For `Cc1ccccc1NC(=O)Nc1ccc(-c2cnc3c(Br)cnn3c2N)cc1`, in data set [2], the IC50 was more than 12500 nM.

For the molecule `Cc1cccc(NC(=O)Nc2ccc(-c3cnc4c(-c5cnn(C)c5)cnn4c3N)cc2)c1`, in the data set with Mus musculus [3], the t1/2 amounted to 15 min. Also, the AUC in [4] stood at 810 ng·h/mL; in [6], 1800 ng·h/mL. The bioavailability in [5] is 14%. Moreover, the IC50 stood at 4 nM in data set [2] and 0.7 nM in [9]. The inhibition in vivo at 10 mg/kg in the data set on Mus musculus [1] was determined as 49%. This molecule also displayed a distribution volume (Vd) in the data set on Mus musculus [7] of 1.4 L/kg. Besides, the Cmax in data set [8] amounted to 360 nM.

Molecule `COc1ccc(-c2cnc3c(-c4ccsc4)cnn3c2N)cc1` registered an IC50 in data set [2] of 6100 nM.

For the molecule `Cn1cc(-c2ccn3c(N)c(-c4ccc(NC(=O)Nc5cccc(Cl)c5)cc4)cnc23)cn1`, the inhibition in vivo at 10 mg/kg in the data set with Mus musculus [1] turned out to be 27%.

The molecule `Cc1cccc(NC(=O)Nc2ccc(-c3cnc4c(Br)cnn4c3)cc2)c1` showed an IC50 in [2] of more than 12500 nM.

Molecule `Cc1cccc(NC(=O)Nc2ccc(-c3cnc4c(C#N)cnn4c3N)cc2)c1` returned a concentration for half-maximal inhibition (IC50) in data set [2] of 930 nM.

Turning to `Nc1c(-c2ccccc2)cnc2c(Br)cnn12`, in [2], the IC50 is more than 12500 nM.

In the case of `Cc1cccc(NC(=O)Nc2ccc(-c3cnc4c(C(=O)O)cnn4c3N)cc2)c1`, in data set [2], the IC50 is 2000 nM.

Turning to `CCN(CC)CCNC(=O)c1cnn2c(N)c(-c3ccc(NC(=O)Nc4cccc(C)c4)cc3)cnc12`, the IC50 in data set [2] came out at 500 nM.

Regarding `Cn1cc(-c2ccn3c(N)c(-c4ccc(NC(=O)Nc5ccc(F)c(C(F)(F)F)c5)cc4)cnc23)cn1`, the inhibition in vivo at 10 mg/kg with Mus musculus [1] was less than 15%.

On to `Cc1cccc(NC(=O)Nc2ccc(-c3cnc4c(C(=O)N5CCN(C)CC5)cnn4c3N)cc2)c1`, for which the IC50 in data set [2] is 790 nM.

`Nc1ccc(-c2cnc3c(Br)cnn3c2N)cc1` had an IC50 in data set [2] of more than 12500 nM.

In the case of `Nc1c(-c2ccc(NC(=O)Nc3ccccc3)cc2)cnc2c(Br)cnn12`, in [2], the IC50 was 1600 nM.

`Nc1c(-c2ccc(NC(=O)Nc3cccc(Cl)c3)cc2)cnc2ccnn12`: the IC50 in data set [2] came to 44 nM.

`Cc1cccc(NC(=O)Nc2ccc(-c3cnc4cc(-c5ccccc5)nn4c3N)cc2)c1` returned an IC50 in [2] of more than 12500 nM.

Regarding `Nc1c(-c2ccc(NC(=O)c3ccccc3)cc2)cnc2c(Br)cnn12`, in data set [2], the IC50 is more than 12500 nM.

In data set [2], `Cc1cccc(NC(=O)Nc2ccc(-c3cnc4cc(C)nn4c3N)cc2)c1` gave a half-inhibitory concentration (IC50) of 3500 nM.

Molecule `Cc1cccc(NC(=S)Nc2ccc(-c3cnc4ccnn4c3N)cc2)c1` gave an IC50 in data set [2] of 10000 nM.

Turning to `Cc1cccc(NC(=O)Nc2cccc(-c3cnc4ccnn4c3N)c2)c1`, the IC50 in data set [2] was 6600 nM.

In the case of `CNC(=O)c1cnn2c(N)c(-c3ccc(NC(=O)Nc4cccc(C)c4)cc3)cnc12`, in data set [2], half-maximal inhibition (IC50) was put at 100 nM.

In turn, `Cc1ccc(NC(=O)Nc2ccc(-c3cnc4c(Br)cnn4c3N)cc2)cc1` returned an IC50 in data set [2] of 810 nM.

For the molecule `COc1ccc(-c2cnc3c(Br)cnn3c2N)cc1`, the IC50 in data set [2] is more than 12500 nM.
